Test results published in patent US5880099A, “Inositol polyphosphates and methods of using same” (The Regents of the University of California, priority 1997, dated 1999).
“Also recorded” adds a separate entry of the source.

Legend:
[1] = test system: colonic epithelial T84 cells (calcium-mediated chloride ion secretion); assay: Inhibition of calcium-mediated chloride ion secretion (Table I summary); format: cell-based, human; settings: pathway: Ins (3,4,5,6)P4
Text: The invention provides compounds that are agonists or antagonists of inositol polyphosphates. Inositol polyphosphate derivatives can function as inositol polyphosphate agonists and antagonists. The effects of compounds of the invention on Ins(3,4,5,6)P4 - and PtdInsP3 -mediated inhibition of calcium-mediated chloride ion secretion are described in the Examples and summarized in Table I.
(§1) Enantiomerically pure 1,2-Bt2 -Ins(3,4,5,6)P4 /AM was synthesized to determine if 1,2-Bt2 -Ins(3,4,5,6)P4 /AM mediates the uncoupling of chloride ion secretion from intracellular calcium concentrations. T84 cells (passages 18-48) were maintained as described previously (Weymer, et al., J. Clin. Invest. 76:1828 (1985)), which is incorporated herein by reference. After 7-10 days of incubation on SNAP-WELLS (Corning Costar; Cambridge, Mass.), monolayers had formed tight junctions. Cell monolayers were preincubated with 100, 200 or 400 μM Bt2 -Ins(3,4,5,6)P4 /AM for 30 min prior to mounting. After an additional 30 min, 0.1 mM histamine was added and chloride ion secretion was monitored. Chloride ion secretion was measured as short circuit current (Isc) across T84 monolayers grown to confluence and mounted in Ussing chambers equipped with voltage clamps (Physiologic Instruments; San Diego, Calif.). Data was acquired and analyzed using "Acquire and Analyze" software (Physiologic Instruments).

[2] = test system: T84 cells (histamine-stimulated chloride ion secretion); assay: Histamine-stimulated chloride ion secretion (short circuit current) in T84 monolayers; format: cell-based, human; settings: for effect on histamine-stimulated / calcium-mediated chloride ion secretion (in words): T84 cells
Description: as §1, with “T84 cells (passages 18-48) were maintained as described previously (Weymer, et al., J. Clin. Invest. 76:1828 (1985)), which is incorporated herein by reference.” left out
(§2) Initial studies were directed towards understanding structural determinants of Ins(3,4,5,6)P4 responsible for the inhibitory effect on calcium-mediated chloride ion secretion. A series of cell permeable inositol polyphosphate derivatives were synthesized. These derivatives contained either one or two non-hydrolyzable chemical groups on the 1, 2 or 3 position. T84 monolayers were preincubated for 30 minutes with 200 μM of 2-Bt-1-Me-Ins(3,4,5,6)P4 /AM, Me2 -Ins(3,4,5,6)P4 /AM, Me2 -Ins(1,4,5,6)P4 /AM or 2-Bt-3-Me-Ins(1,4,5,6)P4 /AM.
(§3) Following the incubation, cells were mounted in Ussing chambers. Calcium-mediated chloride ion secretion was stimulated with histamine (10^-4 M). Control values were the response to histamine in coincubated monolayers. Data are represented as mean peak ΔIsc ±SEM, expressed as % control for 8 to 10 experiments. Significant differences were identified using the Student's two-tailed t test.

[3] = test system: T84 cells (Ins(3,4,5,6)P4 inhibition of histamine-stimulated chloride ion secretion); assay: Reversal of Bt2 -Ins(3,4,5,6)P4 /AM inhibition of histamine-stimulated chloride ion secretion in T84 cells; format: cell-based, human; settings: T84 cells, histamine-stimulated
Description: as §2, §3
T84 cells were preincubated with cell permeant inositol polyphosphates as described above to determine if any of the inositol polyphosphate derivatives function as antagonists of Ins(3,4,5,6)P4 inhibition of calcium-mediated chloride ion secretion. Following histamine stimulation, short circuit current was measured. […] The % control shown in FIG. 3 represents ΔIsc over peak Isc in control monolayers stimulated with histamine. However, […]

[4] = test system: T84 cells (histamine-stimulated chloride ion secretion); assay: Histamine-stimulated chloride ion secretion (short circuit current) in T84 monolayers; format: cell-based; settings: Homo sapiens, T84, 0.5 h; 800 μM compound alone; mean ± SEM; read-out: Peak ΔIsc (% Control) after histamine (100 μM)
[5] = test system: T84 cells (Ins(3,4,5,6)P4 inhibition of histamine-stimulated chloride ion secretion); assay: Reversal of Bt2 -Ins(3,4,5,6)P4 /AM inhibition of histamine-stimulated chloride ion secretion in T84 cells; format: cell-based, human; settings: 400 μM antagonist + 200 μM Bt2 Ins (3,4,5,6)P4 /AM; mean ± SEM; 30 min
[6] = test system: T84 cells (cyclic AMP-mediated chloride ion secretion); assay: Dibutyryl cyclic AMP acetoxymethyl ester stimulated chloride ion secretion in T84 cells; format: cell-based, human
Description: as §1, with “After an additional 30 min, 0.1 mM histamine was added and chloride ion secretion was monitored.” left out
[…]; mean±SEM; n=4).

[7] = test system: rabbit colon (calcium-mediated chloride ion secretion); assay: Chloride ion secretion in rabbit colonic epithelia (Ussing chambers)
Description: The results obtained above using T84 colonic epithelial cells in culture were confirmed using a rabbit colon model system (Frizzell et al., J. Membrane Biol. 27:297 (1976); and Frizell and Schultz, Int. Rev. Physiol. 19:205 (1979)), each of which is incorporated herein by reference. Segments of rabbit colon were excised and used as a source of rabbit colonic epithelia. Briefly, segments of rabbit colon were washed with Ringers solution containing 141 mM Na^+, 5 mM K^+, 1.2 mM Ca^2+, 1.2 mM Mg^2+, 122 mM Cl^-, 25 mM HCO3, 1.6 mM HPO4, 0.4 mM H2 PO4 and 10 mM glucose. At 37° C., this solution is pH 7.4 when gassed with 5% CO2 and 95% O2. Epithelium was stripped of the underlying muscle layer and mounted in modified SNAP WELLS (Frizzell et al., supra, 1976). Epithelia were preincubated with 200 μM 1,2-Bt2 -Ins(3,4,5,6)P4 /AM for 30 min at 37° C. and mounted in Ussing chambers. Short circuit current, conductance and resistance were measured at 4 sec intervals as described in Example I. Peak Isc was 50.9% ±10.4 of controls which were incubated with vehicle (FIG. 2; mean±SEM, n=3; p<0.05 by Student's two tailed t-test). The % control shown in FIG. 2 represents ΔIsc over peak Isc in control monolayers stimulated with histamine.

intracellular calcium = assay: Intracellular calcium concentration in treated cells; format: cell-based, human
Description: Elevation in intracellular calcium concentration leads to increased chloride ion secretion. To ensure that none of the effects of the inositol polyphosphate derivatives on chloride ion secretion were due to changes in calcium levels, the concentration of intracellular calcium was measured in cells treated with the inositol polyphosphate derivatives. […] None of the compounds tested altered intracellular calcium levels by themselves or modified levels of intracellular calcium stimulated with carbachol or thapsigargin. Therefore, the effects of inositol polyphosphate derivatives on chloride ion secretion are not due to any effect on intracellular calcium concentrations.

Ins(1,3,4)P3-5/6-kinase = settings: Vajanaphanich et al. 1994; cited from earlier work
[8] = test system: T84 cells (thapsigargin-stimulated chloride ion secretion); assay: Thapsigargin-stimulated chloride ion secretion in T84 cells; format: cell-based, human; settings: carbachol 10^-4 M, thapsigargin 1 μM; FIG. 5A
Text: Carbachol, a muscarinic cholinergic compound, also increases intracellular calcium ion concentration and stimulates chloride ion secretion with short term treatment. However, following long-term treatment of colonic epithelial T84 cells with carbachol, increased concentrations of intracellular calcium ions no longer stimulate chloride ion secretion (Kachintorn et al., Am. J. Physiol. Cell 264:C671 (1993)), which is incorporated herein by reference. […] Thus, Ins(3,4,5,6)P4 is an endogenous negative regulator of calcium-mediated chloride ion secretion because it uncouples chloride ion secretion from calcium ion concentration.
One set of cells was preincubated for 30 min with an inositol polyphosphate derivative. The other two sets of cells were preincubated with vehicle, alone. Measurement of Isc was initiated at time 0. At 5 min, carbachol (10^-4 M) was added to one set of cells preincubated with vehicle alone (designated "Carbachol" in FIG. 5) and to the set of cells preincubated with inositol polyphosphate derivatives (designated "Carbachol+D,L-1,2-Cyclohexylidene-Ins(3,4,5,6)P4 /AM" in FIG. 5A). At 30 min, 1 μM thapsigargin was added. Data were collected for n=4 to 6 experiments.

Ins(3,4,5,6)P4 = settings: cited from earlier work
inositol 1 kinase = settings: in vitro; Tan et al.; cited from earlier work
[9] = test system: T84 cells (histamine-stimulated chloride ion secretion); settings: equivalent to 200 μM extracellular concentration; Vajanaphanich et al.; cited from earlier work

CCCC(=O)O[C@@H]1[C@H](OC)[C@H](OP(=O)(OCOC(C)=O)OCOC(C)=O)[C@@H](OP(=O)(OCOC(C)=O)OCOC(C)=O)[C@H](OP(=O)(OCOC(C)=O)OCOC(C)=O)[C@H]1OP(=O)(OCOC(C)=O)OCOC(C)=O (relative stereo) [D,L-1-Bt-2-Me-Ins(3,4,5,6)P4 /AM, D,L-1-O-butyryl-2-O-methyl-myo-inositol 3,4,5,6-TKphosphate oct (acetoxymethyl) ester]
Mechanism and Inositol Polyphosphate Pathway Affected [1]: Agonist of
effect on histamine-stimulated / calcium-mediated chloride ion secretion (in words) [2]: did not inhibit chloride ion secretion
reversal of the inhibitory effect of Bt2 -Ins(3,4,5,6)P4 /AM / Ins(3,4,5,6)P4-mediated inhibition (in words) [3]: did not reverse the inhibition of Bt2 -Ins(1,4,5,6)P4 /AM
activity at 800 µM [4]: 114 ± 23.7%
Peak ΔIsc (% Control) after histamine (100 μM) [5]: 96.7 ± 14.8 % Control

CCCC(=O)O[C@@H]1[C@H](OC(=O)CCC)[C@H](OP(=O)(OCOC(C)=O)OCOC(C)=O)[C@@H](OP(=O)(OCOC(C)=O)OCOC(C)=O)[C@H](OP(=O)(OCOC(C)=O)OCOC(C)=O)[C@H]1OP(=O)(OCOC(C)=O)OCOC(C)=O [Bt2 -Ins(3,4,5,6)P4 /AM, 1,2-di-O-butyryl-myo-inositol 3,4,5,6-TKphosphate oct (acetoxymethyl) ester]
Mechanism and Inositol Polyphosphate Pathway Affected [1]: Agonist of
activity at 100 µM ([2]; Homo sapiens, T84, 0.5 h, 100 μM compound, mean ± SEM, read-out: Peak ΔIsc (% Control) after histamine (100 μM)): 75.1 ± 7.4%
activity at 200 µM ([2]; Homo sapiens, T84, 0.5 h, 200 μM compound alone, mean ± SEM, read-out: Peak ΔIsc (% Control) after histamine (100 μM)): 57.2 ± 15.1%
activity at 400 µM ([2]; Homo sapiens, T84, 0.5 h, 400 μM compound alone, mean ± SEM, read-out: Peak ΔIsc (% Control) after histamine (100 μM)): 69.3 ± 8.7%
effect on histamine-stimulated / calcium-mediated chloride ion secretion (in words) [2]: inhibit calcium-mediated chloride secretion; also recorded: inhibited chloride ion secretion in response to increased concentrations of intracellular calcium; also recorded: decreased histamine-stimulated chloride ion secretion relative to control cells
concentration for maximum decrease of histamine-stimulated chloride ion secretion ([2]; extracellular, no further decrease with 400 μM): 200 µM
inhibition of dibutyryl cyclic AMP acetoxymethyl ester stimulated chloride ion secretion (in words) [6]: no inhibition
peak ΔIsc, dibutyryl cyclic AMP acetoxymethyl ester stimulated chloride ion secretion ([6]; mean±SEM, n=4): 96.3±9.1 % or control
effect on chloride ion secretion in rabbit colon (in words) ([7]; FIG. 2 / Example II): inhibition of chloride ion secretion; also recorded: decreases chloride ion secretion in rabbit colon
activity at 200 µM ([7]; Oryctolagus cuniculus, 0.5 h, 200 μM, 30 min at 37° C., mean±SEM, n=3, p<0.05, read-out: Peak Isc, of controls): 50.9%
effect on intracellular calcium (in words) (intracellular calcium; alone): does not increase intracellular calcium
effect on calcium response to thapsigargin or carbachol (in words) (intracellular calcium; thapsigargin or carbachol stimulated): does not affect calcium response to thapsigargin
effective intracellular concentration (Ins(1,3,4)P3-5/6-kinase): about 4 μM

C[N+](C)(C)CCOC(N)=O [Carbachol]
effect of prolonged carbachol on thapsigargin-stimulated ΔIsc (in words) [8]: ΔIsc was attenuated
increase in Ins(3,4,5,6)P4 levels (Ins(3,4,5,6)P4; background): ≤ 20 -fold
rise of intracellular Ins(3,4,5,6)P4 levels (in words) (Ins(3,4,5,6)P4; long-term treatment, Vajanaphanich et al.): slow and prolonged rise of intracellular Ins(3,4,5,6)P4 levels

O=P(O)(O)O[C@H]1[C@H](O)[C@@H](O)[C@H](OP(=O)(O)O)[C@@H](OP(=O)(O)O)[C@H]1O [Ins(1,3,4)P3]
effect on inositol 1 kinase (in words) (inositol 1 kinase): inhibited inositol 1 kinase

O=P(O)(O)O[C@H]1[C@H](OP(=O)(O)O)[C@@H](OP(=O)(O)O)[C@@H](O)[C@@H](O)[C@@H]1OP(=O)(O)O [Ins(3,4,5,6)P4, myo-inositol 3,4,5,6-tetrakisphosphate]
intracellular level corresponding to onset of maximum inhibition [9]: ~4 µM
